Experimental data as given in publication PMC12509328, “Human Internal Exposures of Bisphenol A and Six Data-Poor Analogs Predicted by Physiologically Based Kinetic Models with Multimodal Parametrization” (Environmental Science & Technology, 2025).
Where two headings read alike, the source gives them in different places. Marks after values point to notes of the source that are not given here.

Columns and labels:
[1] = Present human PBK model, model evaluation (scenarios 3 and 4); settings: for predicted blood C max, times higher than in vivo observed / predicted blood C max as percent of the observed value: average; for predicted AUC, times higher than observed: present model vs Teeguarden et al. (BPA dosing); for predicted blood C max as percent of the observed value: present model vs Teeguarden et al.
Source text: Several exposure scenarios were defined for parameter gathering, model evaluation, and internal exposure assessment (Table ). In scenarios 1 and 2, a rat PBK model was used to parametrize enterohepatic circulation (EHC) rates for application in human PBK models. […] Models were developed for four human physiologies: male (“man”) and female adults (“woman”), male “child”, and male “toddler” (Table S2). These models were selected based on available physiological data for key organs (thyroid, breasts, and testes), related to ED and the detected bisphenol exposure level. The repeated dose scheme from Karrer et al. was reproduced (scenarios 9 to 12) to model chronic exposure via three meals a day.
When not individually compartmentalized, organs were categorized as either slowly perfused tissues or rapidly perfused tissues and combined. Compartments related to the thyroid, testes, and breasts (depending on sex) were included in human but not rat models. Code was compiled in Berkeley Madonna 10 and Python (see Supporting Information and GitLab: https://gitlab.ethz.ch/eth_toxlab/pbk_model_bisphenol_analogs).
These PBK models were parametrized using a multimodal framework that integrates new approach methodology tools into a reproducible chemical-family wide workflow. This framework combines QSARs, in vitro experiments, and cross-species extrapolation to parametrize PBK models for a family of compounds, some of which were considered data-poor (Figure ). […] Organism-based parameters were tailored to account for species, sex, and age when possible (Figure and Table S2). − Parameters based on both the organism and chemical were partition coefficients, intestinal uptake, EHC rate, and glucuronidation kinetics (Figure ).
To address parameter uncertainty in concentrations that were predicted with human PBK models, 10,000 Monte Carlo (MC) simulations were performed. Each sensitive parameter was resampled according to probability distributions from the literature (Table S8). ,− To ensure physiological plausibility, EHC rates were constrained between 0 and 1, and the sum of all relative organ weights and the sum of all relative organ blood flows were kept constant. MC simulation outcomes were analyzed by comparing the first quartile, the median, and the third quartile values of concentrations per time point.

[2] = set-up: method as in Oh et al.; settings: blood; previous model, BPS; ref Oh et al.; cited from earlier work
[3] = set-up: method as in Oh et al.; settings: blood, in vivo, 4 men and 3 women, ref Oh et al., cited from earlier work; for Cmax: 8.75 μg/kg bw d4-BPS in a chocolate cookie; for AUC / t max: 8.75 μg/kg bw d4-BPS
Human Liver S9 = assay: Glucuronidation kinetics in human liver S9; settings: human liver S9 fractions; for Vmax hepatic glucuronidation / Km: GraphPad Prism fitting; for Ksi hepatic glucuronidation: substrate inhibition fit; for Km: read-out: Km hepatic glucuronidation
Method: (§1) The glucuronidation kinetics of BPA, BPB, BPE, BPF, BPAF, and BPM were determined as described in the Supporting Information (Tables S6 and S7). Outliers were excluded using the Nalimov test.
(§2) Supplementary information on glucuronidation kinetics measurement
(§3) BPA, BPB, BPE and BPM were incubated with Corning® UltraPool™ Human Liver S9 in a buffer […]
(§4) containing UDPGA. […]
(§5) S9 protein). For each assay, an S9 aliquot was thawed on ice, and a reaction master mix was prepared with 0.1 mg S9 protein/mL in either 0.1 M (for BPA, BPB, BPAF, and BPF) or […] (for BPE and BPM) Tris-HCl, along with 10 mM UDPGA in 50 mM Tris-HCl (pH 7.4), 25 µg/mL alamethicin, and 10 mM magnesium chloride. Negative controls using 0.1 M Tris-HCl without UDPGA were included. Each reaction solution (100 µL) was pre-incubated for 5 min at 37° C with 350 rpm shaking. To this solution was added bisphenol solutions (0 to 20 mM) in DMSO in a ratio of 1:100 to achieve final bisphenol concentrations of 0 to 200 µM and 1% (v/v) […]
(§6) glucuronidation reaction was stopped by adding cold methanol (160 μL) and samples were kept at -20 °C for 1 h to precipitate proteins. The resulting mixture was centrifuged (10 min, 4 °C, 15,000 rcf). Supernatants were analyzed using High-performance liquid chromatography (HPLC) with diode array detector (DAD). […]
(§7) A gradient elution […]
(§8) was used with water containing 0.1% formic acid as eluent A and acetonitrile with 0.1% formic acid as eluent B. The initial condition of 15% eluent B was increased to 65% eluent B over 20 min, and then to 90% eluent B in the next 5 min. […]
(§9) and their glucuronides are provided in Supplementary Table S7. Calibration curves were set from concentrations ranging from 1 to 100 µM.

[4] = tested on: human small intestinal S9; assay: Glucuronidation in human small intestinal S9; type: in vitro ADME
Method: Supplementary information on glucuronidation kinetics measurement […]
µg/mL alamethicin, and 10 mM magnesium chloride. Negative controls using 0.1 M Tris-HCl […]
without UDPGA were included.
37° C with 350 rpm shaking. […]
at -20 °C for 1 h to precipitate proteins. The resulting mixture was centrifuged (10 min, 4 °C, 15,000 rcf). Supernatants were analyzed using High-performance liquid chromatography (HPLC) with diode array detector (DAD). Similar experiments were conducted for BPA, BPB, BPE, and […]
Bisphenol concentrations ranged
The retention times for the various bisphenols […]
as §9

[5] = set-up: method as in Thayer et al.; settings: ref Thayer et al., cited from earlier work
[6] = Glucuronidation kinetics in human liver S9; settings: human
Method: as §1, §2, §3, §4, §5, §6, §7, §8, §9

[7] = blood; previous model, BPA; ref Karrer et al.; cited from earlier work
[8] = set-up: method as in Teeguarden et al.; settings: ref Teeguarden et al., cited from earlier work
[9] = ref Yang et al.; cited from earlier work
[10] = Glucuronidation kinetics in rat liver S9; settings: male, Sprague-Dawley, rat, rat liver S9, pH 7.4
Method: as §1, §2
as §5, with “BPA, BPB, BPE and BPM were incubated with Corning® UltraPool™ Human Liver S9 in a buffer containing UDPGA. The S9 reagent (20 mg protein/mL) was aliquoted and stored at -80° C until use. BPAF and BPF were incubated similarly with rat liver S9 (Sprague-Dawley, male, 0.1 mg/mL S9 protein).” for “S9 protein).”
as §6, with “(DAD). Similar experiments were conducted for BPA, BPB, BPE, and BPM with human small intestinal S9 mix (0.025 to 0.25 mg/mL). Bisphenol concentrations ranged from 5 to 120 µM, and incubation times from 15 to 120 min.” for “(DAD).”
(§10) series HPLC system with a Waters XBridge BEH130 C18 column (4.6 × 150 mm, 3.5 μm particle size) for separation and a DAD set to a detection wavelength of λ = 280 nm. A gradient elution was used with water containing 0.1% formic acid as eluent A and acetonitrile with 0.1% formic acid as eluent B. The initial condition of 15% eluent B was increased to 65% eluent B over 20 min, and then to 90% eluent B in the next 5 min. […]
as §9

[11] = tested on: rat liver S9 (Sprague-Dawley, male); assay: Glucuronidation kinetics in rat liver S9
Method: as §1, §2
as §5, with “BPA, BPB, BPE and BPM were incubated with Corning® UltraPool™ Human Liver S9 in a buffer containing UDPGA. The S9 reagent (20 mg protein/mL) was aliquoted and stored at -80° C until use. BPAF and BPF were incubated similarly with rat liver S9 (Sprague-Dawley, male, 0.1 mg/mL S9 protein).” for “S9 protein).”
as §6, with “(DAD). Similar experiments were conducted for BPA, BPB, BPE, and BPM with human small intestinal S9 mix (0.025 to 0.25 mg/mL). Bisphenol concentrations ranged from 5 to 120 µM, and incubation times from 15 to 120 min.” for “(DAD).”
as §10, §9

[12] = present model vs Oh et al. (BPS dosing)
[13] = blood, in vivo, 10 men, 30 μg/kg bw d6-BPA in soup
[14] = rat liver S9 fractions, GraphPad Prism fitting

Structure (SMILES): O=S(=O)(c1ccc(O)cc1)c1ccc(O)cc1 [BPS, Bisphenol S]
- delay of average predicted t max vs measure [1, 12]: 1.7 h
- predicted blood C max, times higher than in vivo observed [1, 12]: 1.6 times
- AUC [2]: 39.8 − ^, ^e nM x day
- Cmax [2]: 10.1 nM
- t max [2]: 0.57 (0.26–0.88) ^e h
- Cmax [3]: 8.79 nM
- AUC [3]: 40 − , ^d nM x day
- t max [3]: 0.5 (0.25–0.5) ^d h

Structure (SMILES): CC(c1ccc(O)cc1)c1ccc(O)cc1 [BPE, Bisphenol E]
- Vmax hepatic glucuronidation (Human Liver S9): 3.42 nmol/min/mg
- Ksi hepatic glucuronidation (Human Liver S9): 280.6 µM
- Km (Human Liver S9): 51.3 µM
- glucuronidation rates in small intestinal S9 fractions [4]: negligible

Structure (SMILES): O=C(O)[C@H]1O[C@@H](Oc2ccc(S(=O)(=O)c3ccc(O)cc3)cc2)[C@H](O)[C@@H](O)[C@@H]1O [BPS glucuronide]
- mean predicted AUC, times higher than in vivo [1, 12]: about 2.4 times
- predicted blood C max, times higher than in vivo observed [1, 12]: 2.8 times
- Cmax [3]: 10.5 nM
- AUC [3]: 78.7 (54–103) ^d nM x day
- t max [3]: 1.0 (1.0–1.0) ^d h

Structure (SMILES): CC(C)(c1ccc(O)cc1)c1ccc(O)cc1 [BPA, bisphenol A]
- predicted AUC, times higher than observed [1]: about 1.5 times
- predicted blood C max as percent of the observed value [1]: 63%
- urinary excretion ([5]; at 24 h, range 92–100%): 98%
- cumulative urinary excretion ([5]; by 48 h): 80–110%
- urinary fraction of unconjugated BPA [5]: 0.029%
- total BPA excreted ([5]; within 12 h post exposure, range 86–98%): 94%
- Km ([6]; pH 7.4): 13.1 µM
- Vmax hepatic glucuronidation (Human Liver S9): 4.06 nmol/min/mg
- AUC [7]: 4.15 (2.91–5.15) ^c nM x day
- Cmax [7]: 1.31 nM
- t max [7]: 0.72 (0.67–0.77) ^c h
- glucuronidation rates in small intestinal S9 fractions [4]: negligible
- urinary excretion ([8]; at 24 h, range 90–116%): 104%
- AUC [8, 13]: 2.5 (1.4–5.7) ^a nM x day
- urinary fraction of unconjugated BPA [8]: 0.03%
- glucuronidated BPA undergoing EHC [9]: ten

Structure (SMILES): CC(C)(c1ccc(O)cc1)c1ccc(O[C@@H]2O[C@H](C(=O)O)[C@@H](O)[C@H](O)[C@H]2O)cc1 [BPA glucuronide]
- predicted AUC, times higher than observed [1]: about 1.5 times
- predicted blood C max as percent of the observed value [1]: 80%
- Cmax [7]: 610 nM
- t max [7]: 0.94 (0.93–0.97) ^c h
- Cmax ([8]; blood, in vivo, 10 men, 30 μg/kg bw d6-BPA in 355 mL of soup, (range)): 286 nM
- AUC [8, 13]: 680 (571–1′210) ^a nM x day
- t max [8, 13]: 1.2 (0.8–2.2) ^a h

Structure (SMILES): Oc1ccc(C(c2ccc(O)cc2)(C(F)(F)F)C(F)(F)F)cc1 [BPAF, Bisphenol AF]
- Km [10]: 49.7 µM
- Vmax hepatic glucuronidation [11, 14]: 7.10 nmol/min/mg
- Ksi hepatic glucuronidation ([11]; rat liver S9 fractions, substrate inhibition fit): 27.63 µM

Structure (SMILES): CC(C)(c1ccc(O)cc1)c1cccc(C(C)(C)c2ccc(O)cc2)c1 [BPM, Bisphenol M]
- Vmax hepatic glucuronidation (Human Liver S9): 4.89 nmol/min/mg
- Ksi hepatic glucuronidation (Human Liver S9): 51.75 µM
- Km (Human Liver S9): 20.2 µM
- glucuronidation rates in small intestinal S9 fractions [4]: negligible

Structure (SMILES): CCC(C)(c1ccc(O)cc1)c1ccc(O)cc1 [BPB, Bisphenol B]
- Km ([6]; human liver S9, pH 7.4): 12.3 µM
- Vmax hepatic glucuronidation (Human Liver S9): 5.81 nmol/min/mg
- Ksi hepatic glucuronidation (Human Liver S9): 21.48 µM
- glucuronidation rates in small intestinal S9 fractions [4]: negligible

Structure (SMILES): Oc1ccc(Cc2ccc(O)cc2)cc1 [BPF, Bisphenol F]
- Vmax hepatic glucuronidation [11, 14]: 1.17 nmol/min/mg
- Vmax hepatic glucuronidation ([11]; rat model code): 1.173 nmol/min/mg
- Km ([11]; read-out: Km hepatic glucuronidation, rat liver S9 fractions, GraphPad Prism fitting): 47.5 µM
